The source of these data is ChEMBL document CHEMBL1122408, “Pyridinylpiperazines, a new class of selective alpha 2-adrenoceptor antagonists” (J Med Chem, 1983).

Experiment [1] deals with T1, Alpha-2A adrenergic receptor (Bos taurus, UniProt Q28838).
T1 sequence (Q28838 whole entry): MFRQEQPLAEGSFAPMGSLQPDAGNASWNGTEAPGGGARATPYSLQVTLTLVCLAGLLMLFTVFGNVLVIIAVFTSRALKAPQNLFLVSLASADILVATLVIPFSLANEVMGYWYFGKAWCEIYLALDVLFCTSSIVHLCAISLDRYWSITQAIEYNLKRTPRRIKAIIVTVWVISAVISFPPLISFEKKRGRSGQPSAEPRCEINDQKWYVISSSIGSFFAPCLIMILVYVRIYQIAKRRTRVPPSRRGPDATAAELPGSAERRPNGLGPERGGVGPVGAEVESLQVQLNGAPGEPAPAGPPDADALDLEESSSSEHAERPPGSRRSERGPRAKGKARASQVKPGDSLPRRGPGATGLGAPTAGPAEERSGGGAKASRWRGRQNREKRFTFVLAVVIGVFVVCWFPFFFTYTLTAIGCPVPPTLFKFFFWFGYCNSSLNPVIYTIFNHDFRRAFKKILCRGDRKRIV
The experiment can be described thus: Binding activity against alpha-2 adrenergic receptor from calf cerebral cortex, using [3H]clonidine as the radioligand. The experiment is classed as tissue-based.

The target in experiment [2] is T2, Adrenergic receptor alpha-1 (Rattus norvegicus, UniProt P15823+P23944+P43140).
T2 sequence (P15823 whole entry): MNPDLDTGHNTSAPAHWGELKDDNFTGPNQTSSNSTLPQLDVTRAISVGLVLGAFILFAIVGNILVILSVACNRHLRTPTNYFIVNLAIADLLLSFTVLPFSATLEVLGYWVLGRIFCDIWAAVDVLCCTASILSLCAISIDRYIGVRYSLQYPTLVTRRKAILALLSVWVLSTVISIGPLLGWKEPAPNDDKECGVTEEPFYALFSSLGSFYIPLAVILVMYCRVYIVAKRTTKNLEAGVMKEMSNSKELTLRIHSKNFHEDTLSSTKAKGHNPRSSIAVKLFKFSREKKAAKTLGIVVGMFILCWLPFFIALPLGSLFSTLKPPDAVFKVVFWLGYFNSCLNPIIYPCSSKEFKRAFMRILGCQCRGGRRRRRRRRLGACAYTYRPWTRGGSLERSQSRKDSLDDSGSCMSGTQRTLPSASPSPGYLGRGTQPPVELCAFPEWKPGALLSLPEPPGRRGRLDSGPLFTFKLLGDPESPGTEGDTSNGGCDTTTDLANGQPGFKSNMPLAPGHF
T2 sequence (P23944 whole entry): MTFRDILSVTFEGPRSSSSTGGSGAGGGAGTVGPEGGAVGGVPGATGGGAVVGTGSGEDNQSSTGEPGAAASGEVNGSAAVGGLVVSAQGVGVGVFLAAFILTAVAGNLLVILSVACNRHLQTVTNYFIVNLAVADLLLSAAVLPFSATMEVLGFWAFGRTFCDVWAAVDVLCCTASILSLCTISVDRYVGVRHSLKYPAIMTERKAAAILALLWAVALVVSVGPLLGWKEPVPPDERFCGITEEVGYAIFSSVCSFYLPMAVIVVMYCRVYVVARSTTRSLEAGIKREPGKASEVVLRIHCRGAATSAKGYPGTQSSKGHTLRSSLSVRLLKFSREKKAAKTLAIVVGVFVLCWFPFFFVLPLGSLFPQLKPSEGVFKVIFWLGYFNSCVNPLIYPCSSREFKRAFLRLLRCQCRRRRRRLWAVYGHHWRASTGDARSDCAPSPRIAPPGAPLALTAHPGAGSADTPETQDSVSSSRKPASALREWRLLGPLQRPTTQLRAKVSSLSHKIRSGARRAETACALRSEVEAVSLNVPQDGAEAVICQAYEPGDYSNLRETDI
T2 sequence (P43140 whole entry): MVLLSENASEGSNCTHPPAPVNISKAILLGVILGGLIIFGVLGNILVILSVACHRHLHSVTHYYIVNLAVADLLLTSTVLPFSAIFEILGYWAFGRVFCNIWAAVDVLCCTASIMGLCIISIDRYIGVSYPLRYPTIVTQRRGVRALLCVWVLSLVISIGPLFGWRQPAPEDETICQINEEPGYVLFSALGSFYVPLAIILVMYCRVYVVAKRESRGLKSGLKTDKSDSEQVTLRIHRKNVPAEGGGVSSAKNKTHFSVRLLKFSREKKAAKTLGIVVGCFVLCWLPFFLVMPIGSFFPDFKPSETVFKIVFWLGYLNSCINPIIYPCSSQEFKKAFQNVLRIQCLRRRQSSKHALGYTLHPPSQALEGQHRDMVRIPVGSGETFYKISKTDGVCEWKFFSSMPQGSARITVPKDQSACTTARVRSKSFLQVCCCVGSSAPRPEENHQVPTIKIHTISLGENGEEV
The experiment can be described thus: Presynaptic antagonistic activity against alpha-1 adrenergic receptor from rat, isolated, field-stimulated vas deferens, using methoxamine as the agonist. The experiment is classed as functional.

`Fc1cccnc1N1CCNCC1`: the Ki in experiment [1] came out at 8.2 nM. Besides, the pA2 in experiment [2] is given as 5.18.
The matching figures for `Clc1cccnc1N1CCN(Cc2ccccc2)CC1`: 120 nM and 7.
The matching figures for `Clc1ccccc1N1CCNCC1`: 25 nM and 6.5.
The matching figures for `CN1CCN(c2ncccc2F)CC1`: 5 nM and 6.2.
For the compound `CN1CCN(c2ncccc2Cl)CC1`, the Ki in experiment [1] is 2.7 nM. Moreover, in experiment [2], the pA2 amounted to 6.5.
